From PMC3660367, “MARCKS Protein Is Phosphorylated and Regulates Calcium Mobilization during Human Acrosomal Exocytosis” (PLoS ONE, 2013)
No end group written: not given here.

Tested on: intracellular calcium levels in human spermatozoa
Experiment: Intracellular calcium measurement of human spermatozoa (Fluo-3-AM)
Assay type: cell-based
Settings: intact sperm, Fluo-3-AM 2 µM; 4 µM ED-TMR 30 min before 15 µM progesterone; three experiments
Experimental: Calcium levels were measured in sperm suspensions using the intracellular fluorescent probe Fluo-3-AM. Motile sperm were adjusted to a concentration of 5–10 ×10^6 cells/ml and loaded with the permeable form of the dye (Fluo-3-AM, 2 µM) for 30 min at 37°C. Cells were washed once and resuspended in HTF. Sperm suspensions were transferred to thermostated (37°C) cuvettes for fluorescence measurements and stirred constantly. At the indicated times, 15 µM progesterone was added to the samples. When indicated, sperm where incubated 30 min in presence of 4 µM of the permeable tetramethylrhodamine-labeled MARCKS ED (ED-TMR) before adding progesterone. Fluo-3 fluorescence (λEx = 505 nm, λEm = 525 nm emission) was recorded in an AMINCO-Bowman Series 2 (AB2) spectrofluorometer. […] To calibrate the maximal response, intracellular calcium concentration ([Ca^2+]i) was determined using Triton X-100 (0.1%). […]
Figure 5 Assessing MARCKS function on acrosomal exocytosis in non-permeabilized sperm. […] The increase in fluorescence is expressed as (F/F0)-1 ((maximum fluorescence intensity/initial fluorescence)-1) versus time in seconds. […] (D) Quantification of three independent experiments. […] Phosphorylated MARCKS was detected by Western blot assay using an anti-phospho-MARCKS antibody. […] Phosphorylated MARCKS was detected by Western blot assay using an anti-phospho-MARCKS antibody. […]

Sequence: KKRFSFKKSFKL (also: tetramethylrhodamine conjugate, site not given here) [ED-TMR, commercial (Anaspec) tetramethylrhodamine-conjugated peptide … from residues 154–165 of human MARCKS ED]
- effect on the increase in calcium levels caused by progesterone: significantly diminished
